The values that follow are results of earlier work, collected in paper PMC12141164, “Phase-1 study of vamotinib (PF-114), a 3rd generation BCR::ABL1 tyrosine kinase-inhibitor, in chronic myeloid leukaemia” (Annals of Hematology, 2025).

The structures appear in SMILES notation. Where two headings read alike, the source gives them in different places.

Test systems include PDGFRa; EPHA6; EPHA7; TAK1; TIE2; VEGFR2; ZAK.
Conditions in all cases: cited from earlier work
On the set-up of data set [1]: method as in PMID 35982483.

With `Cc1ccc(C(=O)Nc2ccc(CN3CCN(C)CC3)c(C(F)(F)F)c2)cc1C#Cc1cnc2[nH]ncc2c1` [olverembatinib], the “inhibition of PDGFRa” value in the data set on PDGFRa (off-target kinases) was “among the off-target kinases”. Also, the “inhibition of EPHA6” value with EPHA6 is on record as “not”. Moreover, in the data set on EPHA7, the “inhibition of EPHA7” value was “not”. Moreover, the “inhibition of TAK1” value in the data set on TAK1 is recorded as “potent inhibitor”. The “inhibition of TIE2” value in the data set on TIE2 is reported as “potent inhibitor”. Also, the “inhibition of VEGFR2” value in the data set with VEGFR2 was “not”. The “inhibition of ZAK” value in the data set on ZAK was “potent inhibitor”. Also, in data set [1] (clinical evaluation), the “most common non-hematologic adverse reaction” value was “skin pigmentation”. Besides, in data set [1] (recent clinical studies), the “drug related cardiovascular adverse events” value is “some drug related cardiovascular adverse events, including vascular occlusions”.

On to `Cc1ccc(C(=O)Nc2ccc(CN3CCN(C)CC3)c(C(F)(F)F)c2)cc1C#Cc1cnc2cccnn12` [ponatinib], for which the “inhibition of PDGFRa” value with PDGFRa (kinase inhibition profiles) is recorded as “potently inhibited”. Besides, in the data set on EPHA6 (kinase inhibition profiles), the “inhibition of EPHA6” value is recorded as “inhibition”. Besides, the “inhibition of EPHA7” value with EPHA7 (kinase inhibition profiles) was “inhibition”. In addition, the “inhibition of TAK1” value in the data set with TAK1 (kinase inhibition profiles) is “inhibition”. For the same compound, in the data set on TIE2 (kinase inhibition profiles), the “inhibition of TIE2” value was “inhibition”. The “inhibition of VEGFR2” value with VEGFR2 (kinase inhibition profiles) is “inhibition”. Moreover, the “inhibition of ZAK” value with ZAK (kinase inhibition profiles) is reported as “inhibition”.
